Pest or weed control and melting point data for six molecules are collected here from US8722578B2, “Spiroheterocyclic pyrrolidinedione herbicidal compositions” (Syngenta Participations AG, priority 2008, dated 2014).

As usually defined, the melting point is the temperature, or range, at which the solid turns liquid.

Data set [1] has as its system Alopecurus myosuroides (ALOMY). Briefly: Example B pre-emergence herbicidal activity, glasshouse pot test. Format: in vivo. As to conditions: 312 h, first table (headed Post-Emergence, taken as pre-emergence), evaluated after 13 days, read-out: ALOMY activity (100=total damage to plant; 0=no damage to plant); for pest or weed control at 250 g/ha: rate 250 g/ha; for pest or weed control at 1000 g/ha: rate 1000 g/ha. How it is done: (§1) Seeds of a variety of test species are sown in standard soil in pots. After cultivation for one day (pre-emergence) or after 8 days cultivation (post-emergence) under controlled conditions in a glasshouse (at 24/16° C., day/night; 14 hours light; 65% humidity), the plants are sprayed with an aqueous spray solution derived from the formulation of the technical active ingredient in acetone/water (50:50) solution containing 0.5% Tween 20 (polyoxyethelyene sorbitan monolaurate, CAS RN 9005-64-5). The test plants are then grown in a glasshouse under controlled conditions in a glasshouse (at 24/16° C., day/night; 14 hours light; 65% humidity) and watered twice daily. After 13 days for pre and post-emergence, the test is evaluated (100=total damage to plant; 0=no damage to plant). Test Plants: Setaria faberi (SETFA), Alopecurus myosuroides (ALOMY), Echinochloa crus-galli (ECHCG), Avena fatua (AVEFA)

Data set [2] relates to Avena fatua (AVEFA). The data set is described as above. Format: in vivo. As to conditions: 312 h, first table (headed Post-Emergence, taken as pre-emergence), evaluated after 13 days, read-out: AVEFA activity (100=total damage to plant; 0=no damage to plant); for pest or weed control at 250 g/ha: rate 250 g/ha; for pest or weed control at 1000 g/ha: rate 1000 g/ha. How it is done:
as §1

In data set [3] the test system is Echinochloa crus-galli (ECHCG). The data set is described as above. Format: in vivo. Particulars: 312 h, first table (headed Post-Emergence, taken as pre-emergence), evaluated after 13 days, read-out: ECHCG activity (100=total damage to plant; 0=no damage to plant); for pest or weed control at 250 g/ha: rate 250 g/ha; for pest or weed control at 1000 g/ha: rate 1000 g/ha. As to the method:
as §1

The test system of data set [4] is Setaria faberi (SETFA). The data set is described as above. Format: in vivo. Particulars: 312 h, first table (headed Post-Emergence, taken as pre-emergence), evaluated after 13 days, read-out: SETFA activity (100=total damage to plant; 0=no damage to plant); for pest or weed control at 250 g/ha: rate 250 g/ha; for pest or weed control at 1000 g/ha: rate 1000 g/ha. As to the method:
as §1

Data set [5] has as its system Alopecurus myosuroides (ALOMY). Briefly: Example B post-emergence herbicidal activity, glasshouse pot test. Format: in vivo. As to conditions: 312 h, evaluated after 13 days, read-out: ALOMY post-emergence activity (100=total damage to plant; 0=no damage to plant); for pest or weed control at 250 g/ha: rate 250 g/ha; for pest or weed control at 1000 g/ha: rate 1000 g/ha. As to the method:
as §1

Data set [6] deals with Avena fatua (AVEFA). Described as above. Type of data set: in vivo. Particulars: 312 h, evaluated after 13 days, read-out: AVEFA post-emergence activity (100=total damage to plant; 0=no damage to plant); for pest or weed control at 250 g/ha: rate 250 g/ha; for pest or weed control at 1000 g/ha: rate 1000 g/ha. How it is done: as §1
In data set [7] the test system is Echinochloa crus-galli (ECHCG). The description is as above. Type of data set: in vivo. Particulars: 312 h, evaluated after 13 days, read-out: ECHCG post-emergence activity (100=total damage to plant; 0=no damage to plant); for pest or weed control at 250 g/ha: rate 250 g/ha; for pest or weed control at 1000 g/ha: rate 1000 g/ha. How it is done: as §1
Data set [8] relates to Setaria faberi (SETFA). The data set is described as above. Type of data set: in vivo. Particulars: 312 h, evaluated after 13 days, read-out: SETFA post-emergence activity (100=total damage to plant; 0=no damage to plant); for pest or weed control at 250 g/ha: rate 250 g/ha; for pest or weed control at 1000 g/ha: rate 1000 g/ha. How it is done:
as §1

Molecule `CCOC(=O)OC1=C(c2cc(C3CC3)c(C)cc2C)C(=O)NC12CCN(OC)CC2` [Compound P55] gave a melting point of 174 to 176 °C. In addition, the pest or weed control at 250 g/ha in data set [1] turned out to be 10%. Moreover, in the data set on Avena fatua (AVEFA) [2], the pest or weed control at 250 g/ha is 0%. Besides, the pest or weed control at 250 g/ha in data set [3] is 40%. Moreover, the pest or weed control at 250 g/ha in the data set with Setaria faberi (SETFA) [4] was 60%. Further, in [5], the pest or weed control at 250 g/ha was determined as 60%. In the data set with Avena fatua (AVEFA) [6], the pest or weed control at 250 g/ha amounted to 60%. For the same molecule, in data set [7], the pest or weed control at 250 g/ha was 70%. The pest or weed control at 250 g/ha in the data set on Setaria faberi (SETFA) [8] was determined as 80%.
For `CCOC(=O)OC1=C(c2ccc(Br)cc2Cl)C(=O)NC12CCN(OC)CC2` [Compound P66], the melting point fell in the range of 199 to 201 °C. The pest or weed control at 250 g/ha in data set [1] is 30%. The pest or weed control at 250 g/ha in the data set on Avena fatua (AVEFA) [2] turned out to be 10%. For the same molecule, the pest or weed control at 250 g/ha in [3] worked out at 0%. For the same molecule, the pest or weed control at 250 g/ha with Setaria faberi (SETFA) [4] is 10%. In addition, the pest or weed control at 250 g/ha in [5] is 90%. In addition, in the data set with Avena fatua (AVEFA) [6], the pest or weed control at 250 g/ha is 70%. Besides, in data set [7], the pest or weed control at 250 g/ha amounted to 100%. In addition, in the data set on Setaria faberi (SETFA) [8], the pest or weed control at 250 g/ha came out at 90%.
In turn, `CON1CCC2(CC1)NC(=O)C(c1ccc(Br)cc1C)=C2OC(=O)C(C)(C)C` [Compound P69] yielded a melting point of 239 to 240 °C. Also, the pest or weed control at 250 g/ha in data set [1] was determined as 40%. Besides, in the data set with Avena fatua (AVEFA) [2], the pest or weed control at 250 g/ha stood at 30%. Also, the pest or weed control at 250 g/ha in data set [3] worked out at 90%. In addition, the pest or weed control at 250 g/ha with Setaria faberi (SETFA) [4] is 100%. For the same molecule, the pest or weed control at 250 g/ha in [5] was 90%. Besides, the pest or weed control at 250 g/ha with Avena fatua (AVEFA) [6] was found to be 60%. Moreover, the pest or weed control at 250 g/ha in [7] worked out at 90%. In addition, in the data set on Setaria faberi (SETFA) [8], the pest or weed control at 250 g/ha came to 90%.
Consider `CON1CCC2(CC1)NC(=O)C(c1ccc(Cl)cc1Cl)C2=O` (stereo not drawn) [Compound T2], for which the melting point is 221 to 223 °C. Also, the pest or weed control at 1000 g/ha in [1] was 60%. In the data set with Avena fatua (AVEFA) [2], the pest or weed control at 1000 g/ha is 40%. Also, the pest or weed control at 1000 g/ha in [3] is 0%. In addition, the pest or weed control at 1000 g/ha in the data set on Setaria faberi (SETFA) [4] came out at 30%. Besides, the pest or weed control at 1000 g/ha in data set [5] came to 100%. Also, the pest or weed control at 1000 g/ha with Avena fatua (AVEFA) [6] is 90%. Further, in [7], the pest or weed control at 1000 g/ha was 100%. Moreover, in the data set with Setaria faberi (SETFA) [8], the pest or weed control at 1000 g/ha was 100%.
Molecule `CON1CCC2(CC1)NC(=O)C(c1c(Cl)cccc1Cl)C2=O` (stereo not drawn) [Compound T3] gave a melting point of 257 to 260 °C. In data set [1], the pest or weed control at 1000 g/ha turned out to be 40%. The pest or weed control at 1000 g/ha in the data set with Avena fatua (AVEFA) [2] is 0%. The pest or weed control at 1000 g/ha in data set [3] stood at 0%. Further, the pest or weed control at 1000 g/ha with Setaria faberi (SETFA) [4] stood at 80%. Further, in data set [5], the pest or weed control at 1000 g/ha was determined as 60%. Further, the pest or weed control at 1000 g/ha in the data set with Avena fatua (AVEFA) [6] was 0%. In [7], the pest or weed control at 1000 g/ha is 0%. The pest or weed control at 1000 g/ha in the data set with Setaria faberi (SETFA) [8] is 70%.
For the molecule `CON1CCC2(CC1)NC(=O)C(c1c(C)cc(Br)cc1C)C2=O` (stereo not drawn) [Compound T12], the melting point fell in the range of 260 to 264 °C. Further, the pest or weed control at 1000 g/ha in data set [1] stood at 70%. Further, the pest or weed control at 1000 g/ha with Avena fatua (AVEFA) [2] is 80%. Moreover, the pest or weed control at 1000 g/ha in data set [3] stood at 20%. Also, in the data set with Setaria faberi (SETFA) [4], the pest or weed control at 1000 g/ha was determined as 90%. In data set [5], the pest or weed control at 1000 g/ha was 80%. Further, in the data set with Avena fatua (AVEFA) [6], the pest or weed control at 1000 g/ha stood at 90%. In data set [7], the pest or weed control at 1000 g/ha was 80%. Further, the pest or weed control at 1000 g/ha in the data set on Setaria faberi (SETFA) [8] came to 90%.
